From patent US6528494B2 (priority 1996, dated 2003)
Where a name gives a salt, the structure may show the parent alone.

Experiments:
Format in all cases: cell-based
adenosine 2a receptor = adenosine 2a receptor (Homo sapiens, UniProt P29274); assay: Agonist activity against adenosine 2a receptor (CHO cells, cAMP/SPAP reporter); settings: CHO cells transfected with human receptor; basal cAMP via SPAP; mean of all the versions tested
Experimental: (§1) (1) Agonist activity against adenosine 2a, adenosine 1 and adenosine 3 receptor subtypes.
(§2) The effect of test compounds was determined by their effects on basal levels of cAMP (A2a) or on forskolin-enhanced cAMP (A1 and A3) as reflected by changes in levels of SPAP.

adenosine 1 receptor = biological target: T1, adenosine 1 receptor (Homo sapiens, UniProt P30542); assay: Agonist activity against adenosine 1 receptor (CHO cells, forskolin-enhanced cAMP/SPAP reporter); settings: CHO cells transfected with human receptor; forskolin-enhanced cAMP via SPAP; mean of all the versions tested
T1 sequence (P30542 1-326): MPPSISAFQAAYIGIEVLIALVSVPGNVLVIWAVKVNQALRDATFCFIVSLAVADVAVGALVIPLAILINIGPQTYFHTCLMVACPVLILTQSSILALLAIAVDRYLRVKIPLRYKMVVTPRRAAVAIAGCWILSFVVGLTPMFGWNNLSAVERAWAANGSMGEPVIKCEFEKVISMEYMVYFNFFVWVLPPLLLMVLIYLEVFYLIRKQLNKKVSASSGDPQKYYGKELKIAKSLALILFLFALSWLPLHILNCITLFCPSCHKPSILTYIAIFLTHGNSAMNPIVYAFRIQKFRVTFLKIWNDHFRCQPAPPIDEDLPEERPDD
Experimental: as §1, §2

adenosine 3 receptor = biological target: T2, adenosine 3 receptor (Homo sapiens, UniProt P0DMS8); assay: Agonist activity against adenosine 3 receptor (CHO cells, forskolin-enhanced cAMP/SPAP reporter); settings: CHO cells transfected with human receptor; forskolin-enhanced cAMP via SPAP; mean of all the versions tested
T2 sequence (P0DMS8 1-318): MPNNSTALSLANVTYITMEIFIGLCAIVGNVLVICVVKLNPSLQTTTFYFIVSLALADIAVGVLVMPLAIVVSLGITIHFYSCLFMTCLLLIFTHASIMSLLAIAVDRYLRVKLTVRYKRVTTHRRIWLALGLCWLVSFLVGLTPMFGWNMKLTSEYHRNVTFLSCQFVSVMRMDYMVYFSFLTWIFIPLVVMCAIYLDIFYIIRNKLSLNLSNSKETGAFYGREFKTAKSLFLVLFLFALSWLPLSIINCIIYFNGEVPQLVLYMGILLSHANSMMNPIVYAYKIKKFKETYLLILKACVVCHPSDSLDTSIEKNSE
Experimental: as §1, §2

adenosine 2a receptor, sequence (P29274 whole entry): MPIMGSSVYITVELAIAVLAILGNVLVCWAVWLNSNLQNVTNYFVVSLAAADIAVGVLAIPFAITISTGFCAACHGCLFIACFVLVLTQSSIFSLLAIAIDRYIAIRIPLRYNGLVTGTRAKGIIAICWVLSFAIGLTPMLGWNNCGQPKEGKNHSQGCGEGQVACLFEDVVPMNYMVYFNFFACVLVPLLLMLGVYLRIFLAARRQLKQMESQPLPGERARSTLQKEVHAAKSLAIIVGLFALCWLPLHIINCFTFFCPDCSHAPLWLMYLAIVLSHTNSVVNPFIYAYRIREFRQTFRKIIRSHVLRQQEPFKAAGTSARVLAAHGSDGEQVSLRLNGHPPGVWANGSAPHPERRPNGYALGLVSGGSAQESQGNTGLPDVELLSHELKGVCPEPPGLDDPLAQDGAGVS

| Structure (SMILES) | A2a EC50 as a ratio of that of NECA (adenosine 2a receptor) | A1 EC50 as a ratio of that of NECA (adenosine 1 receptor) | A3 EC50 as a ratio of that of NECA (adenosine 3 receptor) |
| --- | --- | --- | --- |
| CCC(CC)Nc1nc(NC2CCCC2O)nc2c1ncn2C1OC(c2nnn(C)n2)C(O)C1O.O=CO.O=CO [Example 88, (2R,3R,4S,5R)-2-[6-(1-Ethyl-propylamino)-2-(2R-hydroxy-(R)-cyclopentylamino)-purin-9-yl]-5-(2-methyl-2H-tetrazol-5-yl)-tetrahydro-furan-3,4-diol Diformate] | 4.53 | >11750.00 | >89 |
| CCn1nnc([C@H]2O[C@@H](n3cnc4c(N)nc(NCc5ccccc5CO)nc43)[C@H](O)[C@@H]2O)n1.O=C(O)C(F)(F)F [Example 86, (2R,3R,4S,5R)-2-[6-Amino-2-(2-hydroxymethyl-benzylamino)-purin-9-yl]-5-(2-ethyl-2H-tetrazol-5-yl)-tetrahydro-furan-3,4-diol Trifluoroacetate] | 2.16 | 16.90 | >179 |
| Cn1nnc(C2OC(n3cnc4c(N)nc(NC(CO)Cc5ccccc5)nc43)C(O)C2O)n1 [Example 37, (2R,3R,4S,5R)-2-[6-Amino-2-(1S-hydroxymethyl-2-phenyl-ethylamino)-purin-9-yl]-5-(2-methyl-2H-tetrazol-5-yl)-tetrahydro-furan-3,4-diol Formate] | 0.52 | 119.1 | >348 |
| CCn1nnc(C2OC(n3cnc4c(NCCN5CCOCC5)nc(NC(CO)Cc5ccccc5)nc43)C(O)C2O)n1 [Example 85, (2R,3S,4R,5R)-2-(2-Ethyl-2H-tetrazol-5-yl)-5-[2-(1S-hydroxymethyl-2-phenyl-ethylamino)-6-(2-morpholin-4-yl-ethylamino)-purin-9-yl]-tetrahydro-furan-3,4-diol Formate] | 6.11 | 192.90 | >179 |
| CCn1nnc([C@H]2O[C@@H](n3cnc4c(N)nc(N[C@H]5CC[C@H](N)CC5)nc43)[C@H](O)[C@@H]2O)n1 [Example 53, (2R,3R,4S,5R)-2-[6-Amino-2-(trans-4-amino-cyclohexylamino)-purin-9-yl]-5-(2-ethyl-2H-tetrazol-5-yl)-tetrahydro-furan-3,4-diol] | 4.14 | 298.30 | >960 |
| CCn1nnc(C2OC(n3cnc4c(NCCC5CCCCC5)nc(NC5CCNC5)nc43)C(O)C2O)n1 [Example 72, (2R,3R,4S,5R)-2-[6-(2-Cyclohexyl-ethylamino)-2-(pyrrolidin-3R-ylamino)-purin-9-yl]-5-(2-ethyl-2H-tetrazol-5-yl)-tetrahydro-furan-3,4-diol Diformate] | 6.48 | 848.50 | >158 |
| CCC(CC)Nc1nc(NCCc2cn(C)cn2)nc2c1ncn2[C@@H]1O[C@H](c2nnn(C(C)C)n2)[C@@H](O)[C@H]1O.O=CO [Example 59, (2R,3R,4S,5R)-2-{6-(1-Ethyl-propylamino)-2-[2-(1-methyl-1H-imidazol-4-yl)-ethylamino]-purin-9-yl}-5-(2-isopropyl-2H-tetrazol-5-yl)-tetrahydro-furan-3,4-diol Formate] | 2.34 | 92.30 | >749 |
| CCn1nnc([C@H]2O[C@@H](n3cnc4c(NCCc5ccccc5)nc(NCCN5CCOCC5)nc43)[C@H](O)[C@@H]2O)n1 [Example 49, (2R,3S,4R,5R)-2-(2-Ethyl-2H-tetrazol-5-yl)-5-[2-(2-morpholin-4-yl-ethylamino)-6-phenethylamino-purin-9-yl]-tetrahydro-furan-3,4-diol] | 3.28 | 158.70 | >214 |
| CC(C)n1nnc([C@H]2O[C@@H](n3cnc4c(NCc5ccccc5)nc(NCCc5cn(C)cn5)nc43)[C@H](O)[C@@H]2O)n1.O=CO [Example 58, (2R,3R,4S,5R)-2-{6-Benzylamino-2-[2-(1-methyl-1H-imidazol-4-yl)-ethylamino]-purin-9-yl}-5-(2-isopropyl-2H-tetrazol-5-yl)-tetrahydro-furan-3,4-diol Formate] | 6.07 | 1119.00 | >515 |
| CCn1nnc([C@H]2O[C@@H](n3cnc4c(NCC(c5ccccc5)c5ccccc5)nc(NC5CCNC5)nc43)[C@H](O)[C@@H]2O)n1.O=C(O)C(F)(F)F.O=C(O)C(F)(F)F.O=C(O)C(F)(F)F (stereo partly drawn) [Example 2, (2R,3R,4S,5R)-2-[6-(2,2-Diphenyl-ethylamino)-2-(pyrrolidin-3-ylamino)-purin-9-yl]-5-(2-ethyl-2H-tetrazol-5-yl)-tetrahydro-furan-3,4-diol tris(Trifluoroacetate)] | 0.92 | 123.6 | >216 |
| Cn1nnc(C2OC(n3cnc4c(NC(CO)Cc5ccccc5)nc(NC(CO)Cc5ccccc5)nc43)C(O)C2O)n1 [Example 110, (2R,3R,4S,5R)-2-[2,6-Bis-(1S-Hydroxymethyl-2-phenyl-ethylamino)-purin-9-yl]-5-(2-methyl-2H-tetrazol-5-yl)-tetrahydro-furan-3,4-diol Formate] | 5.00 | 3.13 | >315 |
| CCn1nnc([C@H]2O[C@@H](n3cnc4c(NCCc5ccccc5)nc(NCCc5cn(C)cn5)nc43)[C@H](O)[C@@H]2O)n1.Cl.Cl [Example 4, (2R,3S,4R,5R)-2-(2-Ethyl-2H-tetrazol-5-yl)-5-{2-[2-(1-methyl-1H-imidazol-4-yl)-ethylamino]-6-phenethylamino-purin-9-yl}-tetrahydro-furan-3,4-diol Dihydrochloride] | 0.149 | 205.4 | >244 |
| CCn1nnc([C@H]2O[C@@H](n3cnc4c(NCC(c5ccccc5)c5ccccc5)nc(NCCN)nc43)[C@H](O)[C@@H]2O)n1 [Example 83, (2R,3R,4S,5R)-2-[2-(2-Amino-ethylamino)-6-(2,2-diphenyl-ethylamino)-purin-9-yl]-5-(2-ethyl-2H-tetrazol-5-yl)-tetrahydro-furan-3,4-diol] | 4.82 | 130.10 | >362 |
| Cn1nnc(C2OC(n3cnc4c(NCC(c5ccccc5)c5ccccc5)nc(NC5CCC(N)CC5)nc43)C(O)C2O)n1.O=CO.O=CO [Example 93, (2R,3R,4S,5R)-2-[2-(trans-4-Amino-cyclohexylamino)-6-(2,2-diphenyl-ethylamino)-purin-9-yl]-5-(2-methyl-2H-tetrazol-5-yl)-tetrahydro-furan-3,4-diol Diformate] | 5.07 | 922.00 | >153 |
| CCn1nnc(C2OC(n3cnc4c(NCc5cccc(I)c5)nc(NC5CCN(Cc6ccccc6)C5)nc43)C(O)C2O)n1.O=CO.O=CO [Example 77, (2R,3R,4S,5R)-2-[2-(1-Benzyl-pyrrolidin-3-ylamino)-6-(3-iodo-benzylamino)-purin-9-yl]-5-(2-ethyl-2H-tetrazol-5-yl)-tetrahydro-furan-3,4-diol bis(Formate)] | 3.30 | 101.30 | >200 |
